The target in data set [1] is phosphorylated MEK1 (Homo sapiens, UniProt Q02750). The data set can be described thus: MEK1 binding assay (HTRF, tracer displacement). Particulars: for inhibition at 2 µM: read-out: % binding (2 µM); for inhibition at 20 µM: read-out: % binding (20 µM). As to the method:
The homogeneous time resolved fluorescence (HTRF) assay was performed on a Proxiplate-384 F plus solid back plate (Perkin Elmer, Waltham, MA. USA) with 5 nM GST tagged phosphorylated MEK1 (GST-MEK1), 2 nM europium-labeled anti-GST antibody (Eu-anti-GST), 20 nM kinase tracer 236 and test compound at a variety of concentrations. In the reaction mixture, GST-MEK1 forms a complex with the Eu-anti-GST and the tracer. Excitation of europium (the donor) using a 340-nm excitation filter results in energy transfer to the fluorophore of the tracer. This energy transfer is detected by an increase in the fluorescence emission of the tracer at 665 nm and a decrease in the fluorescence emission of europium at 615 nm. The FRET ratio was calculated by dividing the emission signal at 665 nm by the emission signal at 615 nm. A competitor compound such as a MEK inhibitor replaces the tracer from the complex and decreases the FRET ratio accordingly. The plate was incubated in dark at room temperature for 30 min before measuring the fluorescent emission of each well at 665 and 615 nm using a 340-nm excitation filter, 100-µs delay time, and 200-µs integration time, on a PHERAStar plate reader (BMG Labtech, Durham, NC, USA). […] Data shown as %Inhibition normalized to AZD6244 at 100 µM.
(TR-FRET usually uses a lanthanide donor and a delayed reading to cut background.)

What is called IC50 is the point on the concentration scale where inhibition reaches its midpoint. The melting point is the temperature of the solid-liquid transition.

Sequence of phosphorylated MEK1 (Q02750 whole entry): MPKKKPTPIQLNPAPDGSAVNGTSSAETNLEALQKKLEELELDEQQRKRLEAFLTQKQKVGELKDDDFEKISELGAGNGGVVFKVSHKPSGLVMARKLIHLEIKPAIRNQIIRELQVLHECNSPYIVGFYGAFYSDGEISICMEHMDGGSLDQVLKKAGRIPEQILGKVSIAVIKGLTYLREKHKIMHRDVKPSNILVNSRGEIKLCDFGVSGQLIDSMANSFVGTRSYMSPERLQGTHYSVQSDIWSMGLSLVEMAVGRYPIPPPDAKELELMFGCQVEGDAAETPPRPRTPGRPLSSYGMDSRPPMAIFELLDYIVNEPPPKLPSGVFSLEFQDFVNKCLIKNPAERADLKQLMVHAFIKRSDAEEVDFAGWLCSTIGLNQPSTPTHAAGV

`CCC(=O)Oc1ccc2c(C)c(Cc3ccccc3)c(=O)oc2c1` [Compound 35, 3-Benzyl-4-methyl-2-oxo-2H-chromen-7-yl propionate] displayed a melting point of 118 to 119 °C. Moreover, the IC50 in data set [1] (HTRF binding to GST tagged phosphorylated MEK1, read-out: IC50) came to 1030 nM. Further, in data set [1], the inhibition at 2 µM was 64.5% and the inhibition at 20 µM was 85%.
`COc1ccc2cc(Cc3ccccc3)c(=O)oc2c1` [Compound 83, 3-Benzyl-7-methoxy-2H-chromen-2-one] had a melting point of 102 to 103 °C. In addition, in data set [1], the inhibition at 2 µM worked out at 23% and the inhibition at 20 µM turned out to be 2.93%.
As to `CCN(CC)C(=O)Oc1ccc2c(C)c(Cc3ccccc3)c(=O)oc2c1` [Compound 20, 3-Benzyl-4-methyl-2-oxo-2H-chromen-7-yl diethylcarbamate], the melting point is 109 °C. Moreover, in data set [1], the inhibition at 2 µM was 15.5% and the inhibition at 20 µM stood at 20%.
Regarding `CCCc1c(Cc2ccc(F)cc2)c(=O)oc2cc(O)ccc12` [Compound 4h, 3-(4-Fluorobenzyl)-7-hydroxy-4-propyl-2H-chromen-2-one], the melting point is 130 to 131 °C. In data set [1], the inhibition at 2 µM was found to be 20.9% and the inhibition at 20 µM amounted to 20.4%.
Compound `Cc1c(Cc2ccc(F)cc2)c(=O)oc2cc(OC(=O)c3ccccc3)ccc12` [Compound 66, 3-(4-Fluorobenzyl)-4-methyl-2-oxo-2H-chromen-7-yl benzoate] registered a melting point of 151 to 153 °C. Further, in data set [1], the inhibition at 2 µM amounted to 25.8% and the inhibition at 20 µM amounted to 31%.
Turning to `CCCc1c(Cc2ccccc2)c(=O)oc2cc(O)ccc12` [Compound 4e, 3-Benzyl-7-hydroxy-4-propyl-2H-chromen-2-one], the melting point lay in the range of 139 to 140 °C. Further, in data set [1], the inhibition at 2 µM is 29.1% and the inhibition at 20 µM was 7.06%.
`CCCc1c(Cc2ccc(F)cc2)c(=O)oc2cc(OC(=O)C(C)(C)C)ccc12` [Compound 61, 3-(4-Fluorobenzyl)-2-oxo-4-propyl-2H-chromen-7-yl pivalate] came in with a melting point of 138 to 140 °C. In data set [1], the inhibition at 2 µM turned out to be 31.6% and the inhibition at 20 µM stood at 40.9%.
Take `CCCCC(=O)Oc1ccc2c(CC)c(Cc3ccccc3)c(=O)oc2c1` [Compound 50, 3-Benzyl-4-ethyl-2-oxo-2H-chromen-7-yl pentanoate]: the melting point lay within 72 to 73 °C. Also, in data set [1], the inhibition at 2 µM was found to be 37.2% and the inhibition at 20 µM was found to be 43.2%.
Compound `O=c1cc(CCl)c2ccc(O)cc2o1` [Compound 4i, 4-(Chloromethyl)-7-hydroxy-2H-chromen-2-one] had a melting point of 166 to 167 °C. Further, in data set [1], the inhibition at 2 µM was found to be 33.3% and the inhibition at 20 µM was 22.4%.
Taken in the same sequence, the figures for `CCCC(=O)Oc1ccc2c(CCC)c(Cc3ccccc3)c(=O)oc2c1` [Compound 44, 3-Benzyl-2-oxo-4-propyl-2H-chromen-7-yl butyrate] were 105 to 106 °C, 14% and 38.9%.
With `Cc1ccc(S(=O)(=O)Oc2ccc3c(C)c(Cc4ccccc4)c(=O)oc3c2)cc1` [Compound 76, 3-Benzyl-4-methyl-2-oxo-2H-chromen-7-yl 4-methylbenzenesulfonate], the melting point fell in the range of 138 to 139 °C. Also, in data set [1], the inhibition at 2 µM is 2.87% and the inhibition at 20 µM was -2.36%.
`CCCCC(=O)Oc1ccc2c(C)c(Cc3ccccc3)c(=O)oc2c1` [Compound 48, 3-Benzyl-4-methyl-2-oxo-2H-chromen-7-yl pentanoate] returned a melting point of 110 to 111 °C. Besides, in data set [1], the inhibition at 2 µM is 18.8% and the inhibition at 20 µM is 21.2%.
`Cc1ccc(S(=O)(=O)Oc2cc3oc(=O)c(Cc4ccccc4)c(C)c3cc2Cl)cc1` [Compound 77, 3-Benzyl-6-chloro-4-methyl-2-oxo-2H-chromen-7-yl 4-methylbenzenesulfonate] had a melting point of 173 to 174 °C. For the same compound, in data set [1], the inhibition at 2 µM was found to be 31.7% and the inhibition at 20 µM was determined as 29.6%.
Turning to `CCCc1c(Cc2ccc(F)cc2)c(=O)oc2cc(OC(=O)N(CC)CC)ccc12` [Compound 26, 3-(4-Fluorobenzyl)-2-oxo-4-propyl-2H-chromen-7-yl diethylcarbamate], the melting point was in the range of 51 to 52 °C. For the same compound, in data set [1], the inhibition at 2 µM was 35.2% and the inhibition at 20 µM was found to be 37.5%.
`CCCCC(=O)Oc1ccc2c(CCC)c(Cc3ccc(F)cc3)c(=O)oc2c1` [Compound 54, 3-(4-Fluorobenzyl)-2-oxo-4-propyl-2H-chromen-7-yl pentanoate]: the melting point fell in the range of 68 to 70 °C. Further, in data set [1], the inhibition at 2 µM stood at 11.7% and the inhibition at 20 µM stood at 23.9%.
On to `CCc1c(Cc2ccc(F)cc2)c(=O)oc2cc(O)ccc12` [Compound 4g, 4-Ethyl-3-(4-fluorobenzyl)-7-hydroxy-2H-chromen-2-one], for which the melting point was in the range of 131 to 132 °C. Besides, in data set [1], the inhibition at 2 µM is 10.9% and the inhibition at 20 µM was determined as 19.6%.
Regarding `CCCCC(=O)Oc1ccc2c(C)c(Cc3ccc(F)cc3)c(=O)oc2c1` [Compound 53, 3-(4-Fluorobenzyl)-4-methyl-2-oxo-2H-chromen-7-yl pentanoate], the melting point is 83 to 84 °C. In data set [1], the inhibition at 2 µM is 34.7% and the inhibition at 20 µM was 38.3%.
In turn, `Cc1c(Cc2ccccc2)c(=O)oc2cc(OC(=O)C(C)(C)C)c(Cl)cc12` [Compound 56, 3-Benzyl-6-chloro-4-methyl-2-oxo-2H-chromen-7-yl pivalate] had a melting point of 113 °C. Also, in data set [1], the inhibition at 2 µM is 16.6% and the inhibition at 20 µM worked out at 34.1%.
`CCc1c(Cc2ccccc2)c(=O)oc2cc(OC(=O)C(C)(C)C)ccc12` [Compound 57, 3-Benzyl-4-ethyl-2-oxo-2H-chromen-7-yl pivalate] registered a melting point of 105 to 106 °C. Also, in data set [1], the inhibition at 2 µM amounted to 6.61% and the inhibition at 20 µM amounted to 21%.
As to `CCCc1c(Cc2ccccc2)c(=O)oc2cc(OC(C)=O)ccc12` [Compound 30, 3-Benzyl-2-oxo-4-propyl-2H-chromen-7-yl acetate], the melting point was 139 to 140 °C. For the same compound, in data set [1], the inhibition at 2 µM was determined as 15.5% and the inhibition at 20 µM came out at 25.6%.
Consider `CC(=O)Oc1cc2oc(=O)c(Cc3ccccc3)c(C)c2cc1Cl` [Compound 27, 3-Benzyl-6-chloro-4-methyl-2-oxo-2H-chromen-7-yl acetate], for which the melting point is 190 °C. Besides, in data set [1], the inhibition at 2 µM was 30.6% and the inhibition at 20 µM came to 30.8%.
Compound `CCc1c(Cc2ccccc2)c(=O)oc2cc(OC(=O)c3ccccc3)ccc12` [Compound 64, 3-Benzyl-4-ethyl-2-oxo-2H-chromen-7-yl benzoate] yielded a melting point of 138 °C. In data set [1], the inhibition at 2 µM stood at 10.1% and the inhibition at 20 µM stood at 21.5%.
The like results for `CCN(CC)C(=O)Oc1cc2oc(=O)c(Cc3ccccc3)c(C)c2cc1Cl` [Compound 21, 3-Benzyl-6-chloro-4-methyl-2-oxo-2H-chromen-7-yl diethylcarbamate] were, in that order, 83 to 84 °C, 27% and 48.1%.
Take `Cc1c(Cc2ccc(F)cc2)c(=O)oc2cc(OC(=O)C(C)(C)C)ccc12` [Compound 60, 3-(4-Fluorobenzyl)-4-methyl-2-oxo-2H-chromen-7-yl pivalate]: the melting point lay within 136 to 138 °C. Also, in data set [1], the inhibition at 2 µM was 23.7% and the inhibition at 20 µM was found to be 20.3%.
On to `Cc1ccc(S(=O)(=O)Oc2ccc3c(C)c(Cc4ccc(F)cc4)c(=O)oc3c2)cc1` [Compound 81, 3-(4-Fluorobenzyl)-4-methyl-2-oxo-2H-chromen-7-yl 4-methylbenzenesulfonate], for which the melting point lay in the range of 95 to 96 °C. Also, in data set [1], the inhibition at 2 µM was 8.05% and the inhibition at 20 µM is 9.55%.
Turning to `CCCc1c(Cc2ccccc2)c(=O)oc2cc(OC(=O)CC)ccc12` [Compound 37, 3-Benzyl-2-oxo-4-propyl-2H-chromen-7-yl propionate], the melting point lay within 120 to 121 °C. In data set [1], the inhibition at 2 µM was determined as 19.4% and the inhibition at 20 µM was 38.8%.
In turn, `CCc1c(Cc2ccc(F)cc2)c(=O)oc2cc(OC(=O)N(CC)CC)ccc12` [Compound 25, 4-Ethyl-3-(4-fluorobenzyl)-2-oxo-2H-chromen-7-yl diethylcarbamate] yielded a melting point of 74 to 75 °C. In data set [1], the “binding affinity (in words)” value is “active”, the inhibition at 2 µM stood at 25.9% and the inhibition at 20 µM is 59.2%.
The compound `CCc1c(Cc2ccccc2)c(=O)oc2cc(OC(=O)N(CC)CC)ccc12` [Compound 22, 3-Benzyl-4-ethyl-2-oxo-2H-chromen-7-yl diethylcarbamate] gave a melting point of 64 to 65 °C. In data set [1], the inhibition at 2 µM came to 6.63% and the inhibition at 20 µM was found to be 48.1%.
As to `COc1ccc2cc(C(=O)c3ccccc3)c(=O)oc2c1` [Compound 86, 3-benzoyl-7-methoxycoumarin], the melting point is 149 to 150 °C. Also, in data set [1], the inhibition at 2 µM stood at 7.96% and the inhibition at 20 µM was -8.83%.

For the origin of these results see article PMC6269873, “Substituted 3-Benzylcoumarins as Allosteric MEK1 Inhibitors: Design, Synthesis and Biological Evaluation as Antiviral Agents” (Molecules, 2013).
